Results on 1 compound are retold here after PMC7496275, “Pentathiepins: A Novel Class of Glutathione Peroxidase 1 Inhibitors that Induce Oxidative Stress, Loss of Mitochondrial Membrane Potential and Apoptosis in Human Cancer Cells” (Chemmedchem, 2020).

One may read the IC50 as the concentration at which inhibition is half-maximal.

Structures are written as SMILES.

In experiment [1] the target is T1, bovine GPx1 (Bos taurus, UniProt P00435).
T1 construct: 180 μL of a bovine erythrocyte GPx1 solution (0.125 U/mL); purchased Sigma Aldrich (Taufkirchen, Germany); host or cells: bovine erythrocytes
T1 sequence (P00435 1-205): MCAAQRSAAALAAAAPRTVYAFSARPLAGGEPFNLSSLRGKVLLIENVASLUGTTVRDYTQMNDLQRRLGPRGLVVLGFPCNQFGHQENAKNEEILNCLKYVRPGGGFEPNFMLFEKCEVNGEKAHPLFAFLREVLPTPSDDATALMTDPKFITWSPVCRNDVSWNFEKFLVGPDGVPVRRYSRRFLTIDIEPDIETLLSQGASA
Description: Jump-dilution experiments for reversibility of GPx1 inhibition. Conditions: 30 min pre-incubation at 23 °C, 100-fold jump-dilution. Format: biochemical. The procedure: No difference in the inhibitory activity of 4 after jump‐dilution (Figure 4B left, a) was observed compared to expected inhibition at 0.25 μM (Figure 4B left, 0.25 μM), evidence that GPx1 inhibition is reversible. […] This is consistent with findings that MSA can act as an irreversible inhibitor of GPx1.11 In further jump‐dilution experiments, we pre‐incubated both inhibitors with the assay concentrations of either GSH and TBHP (a, d) or GSH only (b, e), with (a–c) and without (d–f) GPx1 for 30 min.
The jump‐dilution experiments were carried out in a 96‐well plates at room temperature. To each well was added 75 μL of a 20 IU mL^−1 GPx stock‐solution followed by the addition of 3 μL of a 2.5 mM solution of 4 in DMF and 30 μL of a 2.5 mM solution of GSH in buffer or 30 μL of a 2.5 mM solution of GSH in buffer and 30 μL of a 5 mM solution of TBHP in water and 300 μL buffer. The plates were shaken for 30 min in the dark, then each well was diluted 100 fold into a second plate prepared for the GPx‐assay. The enzyme activity was immediately measured as described above.

The target in experiment [2] is T2, bovine erythrocyte GPx (Bos taurus, UniProt P00435).
T2 construct: 180 μL of a bovine erythrocyte GPx1 solution (0.125 U/mL); purchased Sigma Aldrich (Taufkirchen, Germany); host or cells: bovine erythrocytes
T2 sequence (P00435 1-205): T1 sequence (P00435 1-205)
Description: GPx enzyme activity assay (TBHP/GSH, GR/NADPH coupled). Format: biochemical. The method, then:
The ability of pentathiepins to inhibit the bovine erythrocyte GPx activity was assayed for by an established enzyme method, which is based on the GPx‐dependent reduction of tert‐butyl hydroperoxide (TBHP) by GSH, leading to the formation of GSSG, which is coupled to the reduction of GSSG back to GSH by glutathione reductase (GR) and the oxidation of NADPH to NADP^+[10] (Figure 1). Inhibition potencies of the compounds were ranked by their IC50 values; that is, concentration of the inhibitor at the inflection point in the sigmoidal log dose‐inhibition curve (Figure 4A), and are summarized for the pentathiepins and mercaptosuccinic acid (MSA) in Table 1.
GPx enzyme activity assay: To evaluate if the various compounds could inhibit GPx1, an enzymatic assay monitoring the activity of the bovine erythrocyte GPx was used as described previously.33 Bovine erythrocyte GPx is highly homologous to the human GPx1 (homology of 87 %)34 but much more affordable. In this assay, GPx reduces tert‐butylhydroperoxide (TBHP) followed by oxidation of glutathione (GSH) to the disulfide (GSSG), which in turn is regenerated to GSH by glutathione reductase (GR) with the consumption of NADPH. To each well of a UV‐transparent 96‐well plate were added 180 μL of a bovine erythrocyte GPx1 solution (0.125 U/mL) and 30 μL of prospective inhibitor in different concentrations diluted in DMF and incubated under shaking for 15 min at room temperature. Then 30 μL of stock solutions of GSH (2.5 mM) and baker's yeast GR plus NADPH (2 U/mL; 2.0 mM) were added. All stock solutions were prepared in potassium phosphate buffer (50 mM, pH 7.4, EDTA 1.1 mM, Triton‐X 0.01 %). The reaction was started by addition of TBHP solution (5 mM), giving final concentrations of 0.075 U/mL bovine erythrocyte GPx, 0.2 U/mL GR, 0.25 mM GSH, 0.2 mM NADPH and prospective inhibitor concentrations between 0.2–100 μM. The reaction was followed by the rate of decreasing absorption of the NADPH at λ=340 nm, measured every 15 s for ca. 20 min. The GPx activity related to untreated control was imported into the GraphPad Prism 6.0 software and the IC50 values were calculated by estimating the inflection point of the sigmoidal log concentration‐activity curves.

For `CCOc1c2c(c3cnc4cc(C)c(C)cc4n13)SSSSS2` [Compound 4], the “reversibility of GPx1 inhibition” value in experiment [1] is given as “reversible”. Moreover, in experiment [2] (23 °C, n>3, 0.25 mM GSH, read-out: Enzyme inhibition IC50 (CI 95 %)), the 50% inhibitory concentration (IC50) is 2.44 µM. Further, the “potency at inhibiting GPx1 compared to MSA” value in experiment [2] (ratio of IC50 values) is “twice as potent as MSA”.
